Test results from the supplement of paper PMC11208160.

Assay: recombinant barcode read abundance after kanamycin selection (control-corrected) (log10(CPM+1)); higher = more efficient recombination; sequences stand for … in AGTGCAGAGAAAATCGGCCAGTTTTCTCTGCCTGCAGTCCGCATGCCGT…AGATTTATGCAGCGGACTGCCTTTCTCCCAAAGTGATAAACCGGACAGTATCATGGACCGGTTTTCCCGGTAATCCGTATTTGCAAGGTTGGTTTCACT; site = the 11-nt target
Method in brief: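 Recombination efficiency comes from barcode counts at recombinant junctions, converted to counts per million, averaged and corrected against the control. Values appear as log10(CPM+1). They were obtained from a pooled E. coli screen in which each oligo paired a target with an IS621 bridge RNA target-binding loop, and cells were plated in duplicate on chloramphenicol/ampicillin LB agar or on chloramphenicol/ampicillin/kanamycin with 0.1 mM IPTG.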
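Further: IS621 recombinase and bridge RNA in Escherichia coli cells.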

Sequence | recombinant barcode read abundance (log10)
GGAGTGACTTGGGTTCTAACCTGTTGCTT (site GGAGTGACTTA) | 0.176
TATGTGGCTTGGGTTCTAACCTGTTGCCT (site TATGTGGCTAG) | 0.179
GTCACCGCTTGGGTTCTAACCTGTTGCCT (site GTGACCGCTAG) | 0.129
GATTATACTTGGGTTCTAACCTGTTGCTT (site TGCGGAGCTCG) | 0.046
ATGTCTGCTTGGGTTCTAACCTGTTGCCT (site ATGTCTGCTAG) | 0.475
GTTGCCACTTGGGTTCTAACCTGTTGCCT (site GTAGCCACTAG) | 0.137
AACAGGCCTTGGGTTCTAACCTGTTGCCT (site TGTGACACTTT) | 0
AACCCACCTTGGGTTCTAACCTGTTGCCT (site CACCCACCTAG) | 0.56
GACCAGCCTTGGGTTCTAACCTGTTGCAT (site GACCAGCCTAC) | 0.74
GATCGATCTTGGGTTCTAACCTGTTGCCT (site GATCGATCTAT) | 0.0541
GGTTGCACTTGGGTTCTAACCTGTTGCCT (site GGTTGCACTAG) | 0.4
GTTGGCGCTTGGGTTCTAACCTGTTGCCT (site GTTGGCGCTAG) | 0.841
GGGGCGCCTTGGGTTCTAACCTGTTGCCT (site GGGGCGTCTAG) | 0.279
TAACGGCCTTGGGTTCTAACCTGTTGCCT (site TAGCGGCCTAG) | 0.198
CGGTCCGCTTGGGTTCTAACCTGTTGCCT (site CGGTCCGCTAG) | 1.52
ACCTCTTCTTGGGTTCTAACCTGTTGCTA (site CGTCGACCTAT) | 0.204
CGCGGGGCTTGGGTTCTAACCTGTTGCCT (site CGCGGGGCTAG) | 0.662
AACTATTCTTGGGTTCTAACCTGTTGCCT (site AACTATTCTAG) | 0.374
GTTGGGGCTTGGGTTCTAACCTGTTGCCT (site GTTGGGGCTAG) | 0.634
ACATAGTCTTGGGTTCTAACCTGTTGCTG (site ACTTAGTCTTA) | 0.0401
CCGCGCCCTTGGGTTCTAACCTGTTGCAT (site CCGCGCCCTAT) | 0.504
CTCTCCACTTGGGTTCTAACCTGTTGCCA (site CTCTCCACTTG) | 0.138

Sequence | recombinant barcode read abundance (log10)
AGCAGTCCTTGGGTTCTAACCTGTTGCGT (site AGCAGTCCTAC) | 1.47
TGGCCCTCTTGGGTTCTAACCTGTTGCTT (site TGGCCCTCTAA) | 1.63
ATACGGACTTGGGTTCTAACCTGTTGCAG (site ATATGTACTCT) | 0.198
TAGGCGCCTTGGGTTCTAACCTGTTGCCT (site TAGGCGCCTAA) | 0.173
TAACGGCCTTGGGTTCTAACCTGTTGCCT (site TATCGGCCTAG) | 0.0776
TTGTCTCCTTGGGTTCTAACCTGTTGCCT (site TTGTCTCCTAG) | 0.304
GCCGACACTTGGGTTCTAACCTGTTGCCT (site GCCGACACTAG) | 0.13
GAGTTTGCTTGGGTTCTAACCTGTTGCCT (site GAGTTTGCTAG) | 0.572
GTAGACCCTTGGGTTCTAACCTGTTGCTG (site GTAGACCCTCA) | 2.94
AGGTTAGCTTGGGTTCTAACCTGTTGCTA (site AGGTTAGCTTA) | 0.0546
TCCTAACCTTGGGTTCTAACCTGTTGCCT (site TCCTAACCTAG) | 0.454
GGTGACCCTTGGGTTCTAACCTGTTGCGG (site GGTGACCCTCC) | 2.73
TACGTGGCTTGGGTTCTAACCTGTTGCCT (site TACGCGGCTAG) | 0.0139
CGAACTACTTGGGTTCTAACCTGTTGCCT (site CGAACTACTAA) | 0.0404
ACATCTCCTTGGGTTCTAACCTGTTGCCT (site GCATCTCCTAG) | 0.0778
CCAGTCACTTGGGTTCTAACCTGTTGCCT (site CCAGTAACTAG) | 0.377
AGGTCCTCTTGGGTTCTAACCTGTTGCTA (site TGATCCTCTTA) | 0.0783
GTTGGAACTTGGGTTCTAACCTGTTGCGT (site GTTGGGACTAG) | 0.312
ACAGTGGCTTGGGTTCTAACCTGTTGCGG (site ACAGTGGCTCC) | 1.53
TAGAACTCTTGGGTTCTAACCTGTTGCCC (site TAGAACTCTCG) | 0.0614
CCAAAGACTTGGGTTCTAACCTGTTGCTT (site CCAAAGACTAA) | 0.653
CTTGGTTCTTGGGTTCTAACCTGTTGCCT (site CTTGGTTCTAG) | 0.33

Sequence | recombinant barcode read abundance (log10)
TTGTACACTTGGGTTCTAACCTGTTGCCC (site CACATGCCTCA) | 0.452
CTCTTCGCTTGGGTTCTAACCTGTTGCCT (site CTCTTCACTCG) | 0.208
CATCGCACTTGGGTTCTAACCTGTTGCCT (site CCTCGCACTAG) | 0.289
AAGCCAACTTGGGTTCTAACCTGTTGCCT (site AAGCCAACTAG) | 1.19
CTGTGCACTTGGGTTCTAACCTGTTGCCG (site CTGTGCACTCG) | 0.197
CACTCTCCTTGGGTTCTAACCTGTTGCCT (site CACTCTCCTAT) | 0.00896
CTTCGGACTTGGGTTCTAACCTGTTGCAA (site CTTCGGACTTT) | 1.62
TTCCTAGCTTGGGTTCTAACCTGTTGCCA (site ATCCTAGCTCG) | 0.493
ATTCGGCCTTGGGTTCTAACCTGTTGCCT (site ATTCGGCCTAG) | 0.0683
ATGGGTCCTTGGGTTCTAACCTGTTGCCG (site ATAGGTCCTCA) | 0.536
AGGTCCGCTTGGGTTCTAACCTGTTGCTA (site AGGTCCGCTTA) | 1.4
CAATGGACTTGGGTTCTAACCTGTTGCCT (site CATTGGACTAG) | 0.103
CACTTGTCTTGGGTTCTAACCTGTTGCCA (site TATTTGTCTTG) | 0.0129
TCGGAGTCTTGGGTTCTAACCTGTTGCCG (site TCGGAGTCTCG) | 1.17
ACCCTAACTTGGGTTCTAACCTGTTGCCG (site ACCCTAACTCG) | 2.03
TGGTCGGCTTGGGTTCTAACCTGTTGCAC (site TGGTCGGCTGT) | 0.385
GGCAAGGCTTGGGTTCTAACCTGTTGCCT (site GGCAAGGCTAG) | 0.0617
GCTGGACCTTGGGTTCTAACCTGTTGCAT (site GCTCGTCCTAT) | 0.0463
ATGGTGTCTTGGGTTCTAACCTGTTGCCT (site ATGGTGACTAG) | 0.109
GACACACCTTGGGTTCTAACCTGTTGCAT (site GACACACCTAT) | 1.02
CGCCTCACTTGGGTTCTAACCTGTTGCCT (site CGCCTCCCTAG) | 0.152
TCGAGTCCTTGGGTTCTAACCTGTTGCCT (site TCGAGTACTAG) | 0.766

Sequence | recombinant barcode read abundance (log10)
AGTGGACCTTGGGTTCTAACCTGTTGCCC (site TCCCATACTAT) | 0.0634
GTAACCTCTTGGGTTCTAACCTGTTGCCA (site GTAACCTCTTG) | 0.983
GTTGGGGCTTGGGTTCTAACCTGTTGCCT (site GTGGTGGCTAG) | 0.254
GCAATCCCTTGGGTTCTAACCTGTTGCTA (site AGAATCCCTTA) | 0.0668
TGTCGGACTTGGGTTCTAACCTGTTGCAC (site TGTCGGACTCT) | 0.214
TTGGTTCCTTGGGTTCTAACCTGTTGCCT (site TTGGTACCTAG) | 0.155
GCGACTCCTTGGGTTCTAACCTGTTGCCT (site GCGACTCCTAA) | 0.215
TCGAAGCCTTGGGTTCTAACCTGTTGCCT (site TCGAAACCTAG) | 0.0823
AAAGGGACTTGGGTTCTAACCTGTTGCCT (site AAAGGGACTAG) | 2.08
CTTCGTCCTTGGGTTCTAACCTGTTGCAT (site CTTCGTCCTAT) | 0.658
TCATTGACTTGGGTTCTAACCTGTTGCCT (site TCATTGACTAG) | 0.622
ATACAATCTTGGGTTCTAACCTGTTGCCT (site GTACAATCTAG) | 0.0425
ACTCGTTCTTGGGTTCTAACCTGTTGCTT (site GCTAGTTCTAA) | 0.0673
GTCGTCACTTGGGTTCTAACCTGTTGCCT (site GTCGTCACTAG) | 0.334
TACCGGTCTTGGGTTCTAACCTGTTGCTT (site TACCCGTCTAA) | 0.13
CTGGGGTCTTGGGTTCTAACCTGTTGCCT (site CTGGTGTCTAG) | 0.173
GGGGTTCCTTGGGTTCTAACCTGTTGCAT (site GGGGTTCCTAA) | 0.164
TCGTCTACTTGGGTTCTAACCTGTTGCTC (site TCGTCTACTGA) | 0.26
TCTCAGGCTTGGGTTCTAACCTGTTGCAG (site TCTCAGGCTCT) | 0.445
AAGCTAACTTGGGTTCTAACCTGTTGCCT (site AAGCGAACTAG) | 0.248
